Assay results published in patent US11008340B2, “Modulators of ROR-gamma” (Vitae Pharmaceuticals, LLC, priority 2015, dated 2021).
Read-outs that look alike come from different tables or passages of the source.

Key:
[1] = target: T1, recombinant RORγ Ligand Binding Domain (LBD) protein (Homo sapiens, UniProt P51449); assay: Radio-Ligand RORγ Binding Assay (Assay 1); settings: radio-ligand competition, 25-hydroxy [26,27-3H]-cholesterol, RORγ LBD; read-out: Avg ROR Bind Ki
T1 construct: 6×His; GST
T1 sequence (P51449 269-508 limits assumed): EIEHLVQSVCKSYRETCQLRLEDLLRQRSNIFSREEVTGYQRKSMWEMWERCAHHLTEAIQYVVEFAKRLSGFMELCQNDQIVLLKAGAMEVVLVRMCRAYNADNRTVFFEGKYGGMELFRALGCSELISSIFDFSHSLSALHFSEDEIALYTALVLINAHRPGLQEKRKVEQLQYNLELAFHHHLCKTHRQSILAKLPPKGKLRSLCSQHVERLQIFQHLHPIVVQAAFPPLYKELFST
Outline: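 Cell-free SPA competition between compound and 25-hydroxy[26,27-^3H]-cholesterol for 6×His-GST-tagged RORγ LBD in 50 mM HEPES pH 7.4 with NaCl, MgCl2, glycerol, CHAPS, octylglucoside and DTT. Mix was shaken 20 min, held 10 min at rt, then read after poly-Lys YSi beads. IC50 came from a four-parameter fit, and Ki from radioligand KD.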

[2] = target: T2, full-length RORγt in Jurkat cells (Homo sapiens, UniProt P51449); assay: RORγt 5×RORE Assay in Jurkat Cells (Assay 2); format: cell-based; settings: 5×RORE luciferase reporter
T2 construct: transcriptional activity of the full-length RORγt in Jurkat cells; host or cells: Jurkat cells (ATCC TIB-152)
T2 sequence (P51449 1-497 isoform P51449-2): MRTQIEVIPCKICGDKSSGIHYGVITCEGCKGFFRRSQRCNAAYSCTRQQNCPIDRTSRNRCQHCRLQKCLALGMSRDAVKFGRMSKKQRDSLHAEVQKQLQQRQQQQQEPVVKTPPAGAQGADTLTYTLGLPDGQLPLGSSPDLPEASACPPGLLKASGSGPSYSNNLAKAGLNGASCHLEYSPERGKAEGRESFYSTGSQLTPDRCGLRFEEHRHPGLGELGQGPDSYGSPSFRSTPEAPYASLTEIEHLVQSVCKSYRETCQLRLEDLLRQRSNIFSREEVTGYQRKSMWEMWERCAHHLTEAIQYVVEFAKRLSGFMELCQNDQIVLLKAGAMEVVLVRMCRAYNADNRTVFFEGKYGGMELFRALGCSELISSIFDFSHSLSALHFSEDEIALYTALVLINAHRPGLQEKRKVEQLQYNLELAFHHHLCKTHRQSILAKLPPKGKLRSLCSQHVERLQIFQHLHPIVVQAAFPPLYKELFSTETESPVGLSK
Outline: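 Jurkat cells transiently co-transfected with full-length RORγt expression plasmid and secreted NanoLuc reporter driven by 5×RORE; plated in phenol-red-free RPMI with 10% delipidated FBS. Compounds added at 0.1% DMSO final, 16-18 hrs at 37° C; supernatant luciferase read with NanoGlo as measure of inverse agonism.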

[3] = Table 20, read-out: Avg ROR γt/5x IC5

Row | Ki [1] [nM] | IC50 [2, 3] [nM] | IC50 ([2]; read-out: Avg ROR γt/5x IC50) [nM] | SMILES
1 | < 100 | < 100 | – | CC[C@@H]1CN(c2ncc(C(F)(F)F)cc2C)Cc2cc(C(=O)N[C@@H](CO)c3ccc(S(=O)(=O)CC)cc3)ccc21 (single isomer, unassigned) [Hy7-22.1]
2 | < 100 | 100 to 1000 | – | CC[C@H]1CN(c2ncc(C(F)(F)F)cc2C)Cc2cc(C(=O)N[C@@H](CO)c3ccc(S(=O)(=O)CC)cc3)ccc21 (single isomer, unassigned) [Hy7-22.2]
3 | < 100 | < 100 | – | CCS(=O)(=O)c1ccc(CNC(=O)c2ccc3c(c2)CN(c2ncc(-c4ccnc(OC)c4)cn2)C[C@H]3C(C)C)cc1 (single isomer, unassigned) [Hy7-23.1]
4 | < 100 | < 100 | – | CCS(=O)(=O)c1ccc(CNC(=O)c2ccc3c(c2)CN(c2ncc(-c4ccc(=O)n(C)c4)cn2)C[C@H]3C(C)C)cc1 (single isomer, unassigned) [Hy7-24.1]
5 | < 100 | 100 to 1000 | – | CCS(=O)(=O)c1ccc(CNC(=O)c2ccc3c(c2)CN(c2ncc(-c4ccn(C)c(=O)c4)cn2)C[C@H]3C(C)C)cc1 (single isomer, unassigned) [Hy7-25.1]
6 | < 100 | < 100 | – | CCOC(=O)c1cnc(N2Cc3cc(C(=O)NCc4ccc(S(=O)(=O)CC)cc4)ccc3[C@H](C(C)C)C2)nc1C(F)(F)F (single isomer, unassigned) [Hy7-26.1]
7 | < 100 | 100 to 1000 | – | CCOC(=O)c1cnc(N2Cc3cc(C(=O)NCc4ccc(S(=O)(=O)CC)cc4)ccc3[C@@H](C(C)C)C2)nc1C(F)(F)F (single isomer, unassigned) [Hy7-26.2]
8 | < 100 | > 1000 | – | CCS(=O)(=O)c1ccc(CNC(=O)c2ccc3c(c2)CN(Cc2ccc(F)cc2)C[C@H]3C(C)C)cc1 (single isomer, unassigned) [Hy7-27.1]
9 | < 100 | < 100 | – | CCS(=O)(=O)c1ccc(CNC(=O)c2ccc3c(c2)CN(Cc2ccc(F)cc2)C[C@@H]3C(C)C)cc1 (single isomer, unassigned) [Hy7-27.2]
10 | < 100 | 100 to 1000 | – | CCS(=O)(=O)c1ccc(CNC(=O)c2ccc3c(c2)CN(Cc2ccc(C#N)cc2)C[C@H]3C(C)C)cc1 (single isomer, unassigned) [Hy7-28.1]
11 | < 100 | < 100 | – | CCS(=O)(=O)c1ccc(CNC(=O)c2ccc3c(c2)CN(Cc2ccc(C#N)cc2)C[C@@H]3C(C)C)cc1 (single isomer, unassigned) [Hy7-28.2]
12 | < 100 | > 1000 | – | CCS(=O)(=O)c1ccc(CNC(=O)c2ccc3c(c2)CN(Cc2ccc(Cl)cc2)C[C@H]3C(C)C)cc1 (single isomer, unassigned) [Hy7-29.1]
13 | < 100 | 100 to 1000 | – | CCS(=O)(=O)c1ccc(CNC(=O)c2ccc3c(c2)CN(Cc2ccc(Cl)cc2)C[C@@H]3C(C)C)cc1 (single isomer, unassigned) [Hy7-29.2]
14 | < 100 | < 100 | – | CC[C@@H]1CN(c2ncc(-c3ncco3)cn2)Cc2cc(C(=O)NCc3ccc(S(=O)(=O)CC)cc3)ccc21 (single isomer, unassigned) [Hy7-31.1]
15 | < 100 | > 1000 | – | CC[C@H]1CN(c2ncc(-c3ncco3)cn2)Cc2cc(C(=O)NCc3ccc(S(=O)(=O)CC)cc3)ccc21 (single isomer, unassigned) [Hy7-31.2]
16 | < 100 | > 1000 | – | CC[C@@H]1CN(C2CCC(F)(F)CC2)Cc2cc(C(=O)N[C@@H](CO)c3ccc(S(=O)(=O)CC)cc3)ccc21 (single isomer, unassigned) [Hy7-32.1]
17 | < 100 | < 100 | – | CC[C@@H]1CN(c2ncc(-c3ncco3)cn2)Cc2cc(C(=O)N[C@@H](CO)c3ccc(S(=O)(=O)CC)cc3)ccc21 (single isomer, unassigned) [Hy7-33.1]
18 | < 100 | 100 to 1000 | – | CC[C@H]1CN(c2ncc(-c3ncco3)cn2)Cc2cc(C(=O)N[C@@H](CO)c3ccc(S(=O)(=O)CC)cc3)ccc21 (single isomer, unassigned) [Hy7-33.2]
19 | < 100 | < 100 | – | CCOC(=O)c1cnc(N2Cc3cc(C(=O)N[C@@H](CO)c4ccc(S(=O)(=O)CC)cc4)ccc3[C@H](CC)C2)nc1 (single isomer, unassigned) [Hy7-34.1]
20 | < 100 | < 100 | – | CCC1CN(C2CCC(C(F)(F)F)CC2)Cc2cc(C(=O)NC(CO)c3ccc(S(=O)(=O)CC)cc3)ccc21 (single isomer, unassigned) [Hy7-35.1]
21 | < 100 | > 1000 | – | CCC1CN(C2CCC(C(F)(F)F)CC2)Cc2cc(C(=O)NC(CO)c3ccc(S(=O)(=O)CC)cc3)ccc21 (single isomer, unassigned) [Hy7-35.2]
22 | < 100 | < 100 | – | CCS(=O)(=O)c1ccc(CNC(=O)c2ccc3c(c2)CN(c2ncc(C(F)(F)F)cn2)C[C@H]3C(F)(F)F)cc1 (single isomer, unassigned) [Hy7-36.1]
23 | < 100 | > 1000 | – | CCS(=O)(=O)c1ccc(CNC(=O)c2ccc3c(c2)CN(c2ncc(C(F)(F)F)cn2)C[C@@H]3C(F)(F)F)cc1 (single isomer, unassigned) [Hy7-36.2]
24 | < 100 | < 100 | – | CC[C@@H]1CN(c2ncc(C(F)(F)F)cc2C#N)Cc2cc(C(=O)N[C@@H](CO)c3ccc(S(=O)(=O)CC)cc3)ccc21 (single isomer, unassigned) [Hy7-37.1]
25 | < 100 | – | > 1000 | CCS(=O)(=O)c1ccc([C@H](CO)NC(=O)c2ccc3c(OCC4CCOCC4)nc(C)cc3c2)cc1 [Hy1A-1, (R)-N-(1-(4-(ethylsulfonyl)phenyl)-2-hydroxyethyl)-3-methyl-1-((tetrahydro-2H-pyran-4-yl)methoxy)isoquinoline-6-carboxamide]
26 | < 100 | – | 100 to 1000 | CCS(=O)(=O)c1ccc(CNC(=O)c2ccc3c(OCc4ccc(C(F)(F)F)cc4)nccc3c2)cc1 [Hy1A-4, N-(4-(ethylsulfonyl)benzyl)-1-((4-(trifluoromethyl)benzyl)oxy)isoquinoline-6-carboxamide]
27 | < 100 | – | 100 to 1000 | CCS(=O)(=O)c1ccc(CNC(=O)c2ccc3c(OC[C@H]4CC[C@H](C(F)(F)F)CC4)nccc3c2)cc1 [Hy1A-5, N-(4-(ethylsulfonyl)benzyl)-1-(((1r,4r)-4-(trifluoromethyl)cyclohexyl)methoxy)isoquinoline-6-carboxamide]
28 | < 100 | – | < 100 | CCS(=O)(=O)c1ccc(CNC(=O)c2ccc3c(OC[C@H]4CC[C@H](C(F)(F)F)CC4)nc(C)cc3c2)cc1 [Hy1A-6, N-(4-(ethylsulfonyl)benzyl)-3-methyl-1-(((1r,4r)-4-(trifluoromethyl)cyclohexyl)methoxy)isoquinoline-6-carboxamide]
29 | < 100 | – | 100 to 1000 | CCS(=O)(=O)c1ccc([C@H](CO)NC(=O)c2ccc3c(OCc4ccc(C(F)(F)F)cc4)nccc3c2)cc1 [Hy1A-7, (R)-N-(1-(4-(ethylsulfonyl)phenyl)-2-hydroxyethyl)-1-((4-(trifluoromethyl)benzyl)oxy)isoquinoline-6-carboxamide]
30 | < 100 | – | 100 to 1000 | CCS(=O)(=O)c1ccc([C@H](CO)NC(=O)c2ccc3c(OC[C@H]4CC[C@H](C(F)(F)F)CC4)nccc3c2)cc1 [Hy1A-8, N-((R)-1-(4-(ethylsulfonyl)phenyl)-2-hydroxyethyl)-1-(((1r,4R)-4-(trifluoromethyl)cyclohexyl)methoxy)isoquinoline-6-carboxamide]
